Data: ChEMBL document CHEMBL5584353, “Design, Synthesis, and Biological Evaluation of Potent EZH2/LSD1 Dual Inhibitors for Prostate Cancer” (J Med Chem, 2024)
pIC50: −log10 of the molar value. Activity calls are given as the source filed them. The rule behind the calls is not given here.

Tests used:
[1] = target: T1, Lysine-specific histone demethylase 1A (Homo sapiens, UniProt O60341); assay: Inhibition of recombinant human LSD1 using Histone H3 as fluorometric substrate incubated for 30 mins by HRP based plate reader assay
[2] = target: T1, Lysine-specific histone demethylase 1A; assay: Inhibition of LSD1 in human 22Rv1 cells assessed as upregulation of H3K9me2 expression at 1 to 5 uM incubated for 5 days by Western blotting analysis; type: cell-based; conditions: dose 1-5 µM, time 5.0 day
[3] = Cmax in BALB/c mouse at 50 mg/kg,po measured upto 24 hrs by HPLC-MS/MS analysis; type: ADME, organism-based; conditions: in vivo
[4] = tested on: CWR22R; assay: Antimigratory activity in human 22Rv1 cells assessed as downregulation of N-cadherin expression at 3 to 10 uM incubated for 48 hrs by Western blotting analysis; type: functional, cell-based; conditions: dose 3-10 µM
[5] = tested on: CWR22R; assay: Antitumor activity against human 22Rv1 cells xenografted in BALB/c mouse assessed as reduction in tumor weight at 80 mg/kg,ip administrated daily for 31 days; type: functional, organism-based; conditions: time 31.0 day
[6] = tested on: CWR22R; assay: Induction of apoptosis in human 22Rv1 cells at 5 uM incubated for 5 days by Annexin V-FITC/PI staining based flow cytometric analysis (reference value: 8.97 %); type: functional; conditions: time 5 day
[7] = tested on: CWR22R; assay: Induction of apoptosis in human 22Rv1 cells assessed as upregulation of cleaved PARP expression incubated for 48 hr by Western blotting analysis; type: functional, cell-based
[8] = target: T1, Lysine-specific histone demethylase 1A; assay: Inhibition of LSD1 in human 22Rv1 cells assessed as downregulation of AR expression incubated for 48 hrs by Western blotting analysis; type: cell-based
[9] = AUC (0 to infinity) in BALB/c mouse at 50 mg/kg,ip measured upto 24 hrs by HPLC-MS/MS analysis; type: ADME, organism-based; conditions: in vivo
[10] = tested on: PC-9; assay: Antiproliferative activity against human PC-9 cells assessed as inhibition of cell growth incubated for 6 to 7 days by MTS assay; type: functional, cell-based; conditions: time 6-7 day
[11] = tested on: CWR22R; assay: Induction of apoptosis in human 22Rv1 cells at 10 uM incubated for 5 days by Annexin V-FITC/PI staining based flow cytometric analysis (reference value: 8.97 %); type: functional; conditions: time 5 day
[12] = tested on: PC-3; assay: Antimigratory activity in human PC-3 cells assessed as downregulation of E-cadherin expression at 3 to 10 uM incubated for 48 hrs by Western blotting analysis; type: functional, cell-based; conditions: dose 3-10 µM
[13] = Half life in BALB/c mouse at 50 mg/kg,ip measured upto 24 hrs by HPLC-MS/MS analysis; type: ADME, organism-based; conditions: in vivo
[14] = tested on: CWR22R; assay: Antiproliferative activity against human 22Rv1 cells assessed as inhibition of cell growth incubated for 6 to 7 days by MTS assay; type: functional, cell-based; conditions: time 6-7 day
[15] = target: T1, Lysine-specific histone demethylase 1A; assay: Inhibition of LSD1 in human LNCaP cells assessed as downregulation of AR-V7 expression at 1 to 20 uM incubated for 48 hrs by Western blotting analysis; type: cell-based; conditions: dose 1-20 µM
[16] = tested on: CWR22R; assay: Synergistic antiproliferative activity against human 22Rv1 cells assessed as inhibition of cell growth at 6.25 to 100 uM incubated for 6 to 7 days in presence of enzalutamide by MTS assay; type: functional, cell-based; conditions: dose 6.25-100 µM, time 6-7 day
[17] = Toxicity in BALB/c mouse xenografted with human 22Rv1 cells assessed as kidney morphological change at 80 mg/kg,ip administrated daily for 31 days; type: organism-based, CWR22R; conditions: in vivo, 744 h, time 31 day
[18] = Inhibition of LSD2 (unknown origin); parameters: species or system Homo sapiens
[19] = target: T1, Lysine-specific histone demethylase 1A; assay: Inhibition of LSD1 in human 22Rv1 cells assessed as upregulation of H3K4me2 expression at 1 to 5 uM incubated for 5 days by Western blotting analysis; type: cell-based; conditions: dose 1-5 µM, time 5.0 day
[20] = Metabolic stability in Sprague-Dawley rat hepatocyte assessed as compound remaining at 20 uM incubated for 120 mins by HPLC-MS/MS analysis; type: ADME, cell-based; conditions: hepatocytes, read-out: Stability
[21] = tested on: CWR22R; assay: Growth inhibition of human 22Rv1 cells incubated for 6 to 7 days by MTS assay; type: functional; conditions: time 6-7 day
[22] = AUC (0 to infinity) in BALB/c mouse at 50 mg/kg,iv measured upto 24 hrs by HPLC-MS/MS analysis; type: ADME, organism-based; conditions: in vivo
[23] = Toxicity in BALB/c mouse xenografted with human 22Rv1 cells assessed as liver morphological change at 80 mg/kg,ip administrated daily for 31 days; type: organism-based, CWR22R; conditions: in vivo, 744 h, time 31 day
[24] = target: T1, Lysine-specific histone demethylase 1A; assay: Inhibition of LSD1 in human PC-3 cells assessed as upregulation of H3K9me2 expression at 1 to 5 uM incubated for 5 days by Western blotting analysis; type: cell-based; conditions: dose 1-5 µM, time 5.0 day
[25] = tested on: LNCaP; assay: Growth inhibition of human LNCaP cells incubated for 6 to 7 days by MTS assay; type: functional; conditions: time 6-7 day
[26] = Clearance in BALB/c mouse at 50 mg/kg,po measured upto 24 hrs by HPLC-MS/MS analysis; type: ADME, organism-based; conditions: in vivo
[27] = tested on: MDA-MB-231; assay: Antiproliferative activity against human MDA-MB-231 cells assessed as inhibition of cell growth incubated for 6 to 7 days by MTS assay; type: functional, cell-based; conditions: time 6-7 day
[28] = tested on: LNCaP; assay: Antiproliferative activity against human LNCaP cells assessed as inhibition of cell growth incubated for 6 to 7 days by MTS assay; type: functional, cell-based; conditions: time 6-7 day
[29] = Metabolic stability in Sprague-Dawley rat hepatocyte assessed as compound remaining at 20 uM by HPLC-MS/MS analysis; type: ADME, cell-based; conditions: hepatocytes, read-out: Stability
[30] = tested on: CWR22R; assay: Antitumor activity against human 22Rv1 cells xenografted in BALB/c mouse assessed as reduction in Ki67 expression at 80 mg/kg,ip administrated daily for 31 days by immunofluorescence analysis; type: functional, organism-based; conditions: time 31.0 day
[31] = tested on: CWR22R; assay: Synergistic antitumor activity against human 22Rv1 cells xenografted in BALB/c mouse assessed as reduction in tumor growth at 80 mg/kg,ip administrated daily for 31 days in presence of enzalutamide relative to control; type: functional, organism-based; conditions: time 31.0 day
[32] = Metabolic stability in Sprague-Dawley rat hepatocyte assessed as compound remaining at 20 uM incubated for 60 mins by HPLC-MS/MS analysis; type: ADME, cell-based; conditions: hepatocytes, read-out: Stability
[33] = Metabolic stability in Sprague-Dawley rat hepatocyte assessed as compound remaining at 20 uM incubated for 30 mins by HPLC-MS/MS analysis; type: ADME, cell-based; conditions: hepatocytes, read-out: Stability
[34] = tested on: PC-3; assay: Growth inhibition of human PC-3 cells incubated for 6 to 7 days by MTS assay; type: functional; conditions: time 6-7 day

pIC50 [1]: < 5.52
inhibition [2]: Active
Cmax [3]: 7410 ng/mL
inhibition [8]: Dose-Dependent Effect
AUC(0-inf) [9]: 112 µg·h/mL
half-life [13]: 3.5 h
inhibition [15]: Active
pIC50 [18]: 4.78
inhibition [19]: Active
remaining at 2 h, 20 µM [20]: 75.8%
AUC(0-inf) [22]: 126 µg·h/mL
inhibition [24]: Active
GI50 [25]: 1.63 µM
CL/F [26]: 20 mL/min/kg
remaining at 20 µM [29]: 100%
remaining at 1 h, 20 µM [32]: 84.3%
remaining at 0.5 h, 20 µM [33]: 93%
GI50 [34]: 1.04 µM
Structure (SMILES): CCN(c1cc(-c2ccc([C@@H]3C[C@H]3N(CC3CCOCC3)C(=O)OC(C)(C)C)cc2)cc(C(=O)NCc2c(C)cc(C)[nH]c2=O)c1C)C1CCOCC1 (racemic)
Activity [4]: Active
Activity [5]: Active
Activity [6]: 30.97%
Activity [7]: Dose-Dependent Effect
Activity [10]: Active
Activity [11]: 50.06%
Activity [12]: Active
Activity [14]: Active
Activity [16]: Active
Activity [17]: Non-Toxic
GI50 [21]: 3.96 µM
Activity [23]: Non-Toxic
Activity [27]: Active
Activity [28]: Active
Activity [30]: Active
Activity [31]: Active
